Source: patent US20110059070A1, “Combination therapy for tumoral desease treatment” (Ramot At Tel Aviv University Ltd., priority 2006, published 2011)
Read-outs that look alike come from different tables or passages of the source.

Key:
[1] = cited from earlier work
[2] = cited from earlier work; remark: listed apart in the source
mortalin binding to C9 = biological target: T1, mortalin binding to C9 (Homo sapiens, UniProt P38646); assay: Binding of mortalin to complement C9 (ELISA); conditions: K562 cell lysate with or without 50 μM MKT-077 on C9-coated wells; P<0.005
T1 construct: incubated with K562 lysates (source for mortalin), with or without MKT-077; endogenous in cells; host or cells: K562 cell lysate
Method: FIG. 5 is a histogram depicting the interference of MKT-077 with binding of mortalin to C9. Microtiter plate wells were coated overnight with C9 or BSA (0.5 μg per well) and then incubated with K562 cell lysate (40×10^6 cells ml^−1 lysis buffer) diluted 1:25 with or without 50 μM MKT-077. The wells were washed and treated with anti-mortalin antibody and peroxidase-labeled second antibody, developed with o-phenilenediamine (OPD) and analyzed in an ELISA reader. Results present the quantity of mortalin in each experimental group and are representative of three independent experiments. *,P<0.005 between groups with and without MKT-077.
Binding of mortalin to complement C9—Binding of mortalin to the complement C9 protein was examined by ELISA analysis. In brief, purified human C9 and BSA (0.5 μg per well each) were bound overnight at 4° C. to a 96-well Enzyme Immunoassay (EIA) plate (Corning, N.Y., USA). Diluted cell lysate prepared from 40×10^6 K562 cells as described above was added to each well for 60 minutes at 37° C. After washes, monoclonal mouse anti-mortalin antibody (diluted 1:500) was added for 30 minutes at 37° C. and then peroxidase-conjugated goat anti-mouse IgG was added for 30 minutes at room temperature. Next, o-phenylenediamine (Sigma) was added and the plate was examined in a Spectrafluor Plus plate reader (Tecan, Austria) at 450 nm. […]

K562 cells [3] = assay: A23187-mediated lysis of K562 cells; format: cell-based, human; conditions: K562 treated 1 hour at 37° C. with increased concentrations of A23187 and 50 μM MKT-077
Method: (§1) FIG. 4a—K562 cells were pretreated for 1 hour at 37° C. with 50 μM MKT-077 and then treated with 900 and 1200 units ml^−1 SLO or with DTT as control. After 15 minutes at 37° C., cell lysis was measured by Trypan blue inclusion. Results are representative of three independent experiments. FIG. 4b—K562 cells were treated for 1 hour at 37° C. with increased concentrations of A23187 and with 50 μM MKT-077. Cell lysis was then measured by Trypan blue inclusion. Results present the percentage of cell lysis and are representative of three independent experiments.
(§2) MKT-077 has no effect on SLO-mediated lysis and A23187-mediated lysis—The present inventors have further addressed the question of specificity of the effect of MKT-077 on cell death. The effect of MKT-077 on cell death induced by Streptolysin O (SLO), another cytolytic pore-forming protein, was examined. Cells were pretreated with MKT-077 and then treated with several doses of SLO or with dithiothreitol (DTT) as control. Lysis was measured after 15 minutes incubation at 37° C. Results presented in FIG. 4a show no effect of MKT-077 on SLO-mediated lysis. The present inventors have further examined the effect of MKT-077 on cell death induced by the Ca^+2 ionophore A23187. […] Next, the cells were washed and percent cell death was measured.

K562 cells [4] = assay: Release of mortalin and C9 by vesiculation after complement attack (Western blot); format: cell-based, human; conditions: K562 cells pretreated 1 hour with 200 μM or 50 μM, sublytic anti-K562 antibodies and NHS
Method: K562 cells pretreated with 50 μM MKT-077 (or with double distilled water) were treated for 10 minutes at 37° C. with a sublytic dose of anti-K562 antibody and NHS or HI-NHS. Then, the cells were washed 4 times with Hank's Balanced Salt Solution (HBSS; Sigma, Rehovot, Israel), incubated for 10 minutes at 37° C. and supernatant were collected. Released proteins were first sedimented at 5,000 g for 15 minutes and then centrifuged at 100,000 g for 30 minutes for vesicles isolation. High-speed supernatant and pellets were analyzed by SDS-PAGE and Western Blotting with anti-mortalin (FIG. 2a) or anti-C9 (FIG. 2b) antibodies. Results are representative of three independent experiments.
(§3) Cell lysis and collection of secreted vesicles—Cytotoxicity assay was performed as described before [Reiter, Y. and Z. Fishelson, Complement membrane attack complexes induce in human leukemic cells rapid expression of large proteins (L-CIP). Mol Immunol, 1992. 29(6): p. 771-81]. […] Cell lysis was determined by Trypan blue inclusion. Statistical significance was analyzed by using the two-sided unpaired Student's t-test. […]
Protein analysis—Protein concentration was analyzed with the BCA Protein Assay Kit (Pierce, Rockford, Ill., USA). […]

K562 cells [5] = assay: Complement-mediated lysis of K562 cells (Trypan blue inclusion); format: cell-based, human; conditions: for effect on complement-mediated lysis (percent cell lysis): K562 cells pretreated 60 minutes at 37° C. at different concentrations, then anti-K562 antibodies and NHS, Trypan Blue
Method: FIG. 1 is a histogram depicting the sensitization of cells to complement mediated lysis by MKT-077. K562 cells were pretreated for 1 hour at 37° C. with increasing concentrations of MKT-077 [or double distilled water (DDW); NT] and then treated with a sublytic dose of anti-K562 antibody (1:14) and complement [Normal human serum (NHS)] or heat-inactivated NHS (HI-NHS). After incubation for 1 hour at 37° C., percent cell lysis was measured with 0.2% Trypan Blue. Results present the percentage of cell lysis and are representative of four independent experiments. P<0.01 between NT group and the other groups.
K562 cells were treated for 60 minute at 37° C. with different concentrations of MKT-077 or Rhodamine123 (Rho123), followed by treatment for another 60 minutes with anti-K562 antibodies and NHS or HI-NHS and the cell lysis was measured by Trypan blue inclusion. Results are representative of three independent experiments. *P<0.05, between cells treated with NHS and MKT-077 and cells treated with NHS without MKT-077.
as §3
MKT-077 sensitizes cells to complement-mediated lysis—Human K562 erythroleukemia cells were pretreated for 60 minutes at 37° C. with MKT-077, at different concentrations, and then the cells were treated for additional 60 minutes at 37° C. with anti-K562 antibodies for 30 minutes on ice and with complement (NHS) or heat-inactivated NHS (HI-NHS) as control. Finally, cells were washed and percent cell lysis was quantified by Trypan Blue inclusion. […]

human tumor cells = human tumor cells tested; cited from earlier work
[6] = test system: HCT116 colon carcinoma cell line (HCT) p53 +/+ and HCT p53 −/− cells; assay: Complement-mediated lysis of HCT p53 +/+ and HCT p53 −/− cells; format: cell-based; conditions: HCT p53 +/+ versus HCT p53 −/− cells
Method: FIG. 3 is a histogram depicting that the effect of MKT-077 on complement-mediated lysis is p53-independent. HCT116 colon carcinoma cell line (HCT) p53 +/+ and HCT p53 −/− cells were pretreated for 1 hour at 37° C. with 50 μM MKT-077 and then treated with a lytic dose of anti-K562 antibody (1:9) and NHS or HI-NHS. After incubation for 1 hour at 37° C., percent cell lysis was measured by Trypan blue inclusion. Results present the percentage of cell lysis and are representative of three independent experiments.
Cell lysis and collection of secreted vesicles—Cytotoxicity assay was performed as described before [Reiter, Y. and Z. Fishelson, Complement membrane attack complexes induce in human leukemic cells rapid expression of large proteins (L-CIP). Mol Immunol, 1992. 29(6): p. 771-81]. Briefly, for a cell lysis assay, cells were incubated with diluted anti-K562 antiserum for 30 minutes at 4° C. and then with complement [NHS or heat-inactivated normal human serum (HI-NHS), 50%] for 60 minutes at 37° C. Cell lysis was determined by Trypan blue inclusion. Statistical significance was analyzed by using the two-sided unpaired Student's t-test. […]
The effect of MKT-077 on complement-mediated lysis is p53-independent—MKT-077 is known to prevent the binding of mortalin to p53 (Wadhwa et al. Cancer Res. 15: 6818-6821, 2000). […] After 60 minutes at 37° C., percent lysis was measured.

K562 cells [7] = assay: SLO-mediated lysis of K562 cells; format: cell-based, human; conditions: K562 pretreated 1 hour with 50 μM, then 900 and 1200 units ml^−1 SLO, 15 minutes at 37° C.
Method: as §1, §2

[8] = bolus dose (30 minutes i.v. infusion) 126 mg/m^2/week X 4 weeks every 6 weeks

T1 sequence (P38646 47-679): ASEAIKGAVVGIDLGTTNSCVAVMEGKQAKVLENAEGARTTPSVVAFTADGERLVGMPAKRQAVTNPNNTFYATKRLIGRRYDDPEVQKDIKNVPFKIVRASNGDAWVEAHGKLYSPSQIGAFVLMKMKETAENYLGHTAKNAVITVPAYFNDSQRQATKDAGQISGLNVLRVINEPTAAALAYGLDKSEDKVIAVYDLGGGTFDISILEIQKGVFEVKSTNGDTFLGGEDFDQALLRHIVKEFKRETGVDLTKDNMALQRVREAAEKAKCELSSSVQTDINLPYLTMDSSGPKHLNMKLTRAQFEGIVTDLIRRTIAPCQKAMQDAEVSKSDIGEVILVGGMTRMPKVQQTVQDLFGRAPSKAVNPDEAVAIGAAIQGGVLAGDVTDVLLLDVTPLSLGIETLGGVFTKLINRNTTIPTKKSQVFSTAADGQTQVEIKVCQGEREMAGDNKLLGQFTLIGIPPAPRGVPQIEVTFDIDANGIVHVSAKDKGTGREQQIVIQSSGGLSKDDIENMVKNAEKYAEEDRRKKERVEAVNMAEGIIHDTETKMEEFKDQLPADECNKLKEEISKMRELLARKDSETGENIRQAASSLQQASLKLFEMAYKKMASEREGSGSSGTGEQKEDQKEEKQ

Molecule | toxicity ([1]; cancer patients, continuous i.v. infusion 150 mg/m^2/five days (30 mg/m^2, day, for 5 days)) | toxicity ([1]; five-day infusion (30-50 mg/m^2/day) once every three weeks, chemo-resistant solid tumors) | associated toxicity [2, 8] | plasma concentrations [2, 8] | tolerability [2, 8] | toxicity ([2]; single bolus weekly infusion (42 mg/m^2) for 4 weeks every 6 weeks) | ability of mortalin to bind C9 (mortalin binding to C9) | effect on A23187-mediated lysis (K562 cells [3]) | release of C9 by vesiculation (K562 cells [4]; Western blot anti-C9) | release of mortalin by vesiculation (K562 cells [4]; Western blot anti-mortalin) | effect on complement-mediated lysis (percent cell lysis) (K562 cells [5]) | mortalin dependence of the effect on complement-mediated lysis (K562 cells [5]; data not shown) | IC50 concentrations required in vitro (human tumor cells) | p53 dependence of the complement sensitization effect [6] | effect on SLO-mediated lysis (K562 cells [7])
CCn1c(=Cc2cccc[n+]2CC)sc(=C2Sc3ccccc3N2C)c1=O.[Cl-] [MKT-077] | renal toxicity | renal toxicity | hypomagnesemia (kidney toxicity) | 1.2-6.3 microgram/ml | well tolerated | manageable hypomagnesemia | significant decrease | no effect | inhibited | inhibited | significantly enhances killing | mortalin-dependent | 0.15-0.5 microgram/ml | presence or absence of p53 had no effect | no effect
Rhodamine123 |  |  |  |  |  |  |  |  |  |  | no effect |  |  |  | 
